Values quoted from earlier work, collected in patent US9440985B2, “Tricyclic derivatives of N,N′-substituted 3,7-diazabicyclo [3.3.1]nonanes and drugs based thereon” (priority 2011, dated 2016).

What was measured:
AMPA receptors [1] = test system: AMPA receptors
AMPA receptors [2] = conditions: high concentrations
AMPA receptors [3] = conditions: adult rats; 0.3-3 mg/kg

Row | Compound | NMDA-mediated signals (AMPA receptors [1]) | synaptic signal (AMPA receptors [1]; several hippocampus sites) | concentration at which the clinical effect is manifested (AMPA receptors [2]) | social memory (AMPA receptors [3])
1 | COc1ccc(C(=O)N2CCCC2=O)cc1 [aniracetam] | no effect | enhances the synaptic signal | 0.1 mM | –
2 | O=C(c1ccc2c(c1)OCCO2)N1CCCCC1 [CX546] | – | – | – | improves social memory
